Where a name gives a salt, the structure may show the parent alone.
Legend:
human plasma [1] = experiment: Human plasma anticoagulation, thrombin time (TT); assay type: biochemical; settings: concentration required to double thrombin time, linear extrapolation
Protocol: (§1) Dog plasma and rat plasma is obtained from conscious mixed-breed hounds (either sex, Hazelton-LRE, Kalamazoo, Mich., U.S.A.) or from anesthetized male Sprague-Dawley rats (Harlan Sprague-Dawley, Inc., Indianapolis, Ind., U.S.A.) by venipuncture into 3.8 percent citrate. Fibrinogen is prepared from in-date ACD human blood as the fraction I-2 according to previous procedures and specifications. […] Human fibrinogen is also purchased as 98 percent pure/plasmin free from American Diagnostica, Greenwich, Conn. Coagulation reagents ACTIN, Thromboplastin, and Human plasma are from Baxter Healthcare Corp., Dade Division, Miami, Fla. Bovine thrombin from Parke-Davis ([…], Mich.) is used for coagulation assays in plasma.
(§2) Coagulation assay procedures are as previously described. […] A CoAScreener coagulation instrument (American LABor, Inc.) is used for all coagulation assay measurements. The prothrombin time (PT) is measured by adding 0.05 mL saline and 0.05 mL Thromboplastin-C reagent to 0.05 mL test plasma. The activated partial thromboplastin time (APTT) is measured by incubation of 0.05 mL test plasma with 0.05 mL Actin reagent for 120 seconds followed by 0.05 mL CaCl2 (0.02M). The thrombin time (TT) is measured by adding 0.05 mL saline and 0.05 mL thrombin (10 NIH units/mL) to 0.05 mL test plasma. The compounds of Formula I are added to human or animal plasma over a wide range of concentrations to determine prolongation effects on the APTT, PT, and TT assays. Linear extrapolations are performed to estimate the concentrations required to double the clotting time for each assay.

human plasma [2] = experiment: Human plasma anticoagulation, activated partial thromboplastin time (APTT); assay type: biochemical; settings: concentration required to double APTT, linear extrapolation
Protocol: as §1, §2

human plasma [3] = experiment: Human plasma anticoagulation, prothrombin time (PT); assay type: biochemical; settings: concentration required to double PT, linear extrapolation
Protocol: as §1, §2

[4] = Index of bioavailability (% Relative Activity) from plasma TT time course, oral vs i.v.; assay type: in vivo; settings: p.o. dose per legend (20, 60 or 50 mg/kg)
Protocol: Parke Davis) at 37° C. […] Assays are done in duplicate and averaged. […] Each sample population represented alternating sequential time points.

Human Thrombin = Human Thrombin (Homo sapiens, UniProt P00734); experiment: Inhibition of thrombin amidase activity (Kass), chromogenic substrate; assay type: biochemical; settings: mean Kass over a range of concentrations; substrate N-benzoyl-Phe-Val-Arg-p-nitroanilide

% oral/i.v. activity (Rat), screening not completed [4]	Kass Human Thrombin (Human Thrombin)	Compound	Human Plasma Anticoagulation 2x Clotting time TT (human plasma [1]) [ng/mL]	Human Plasma Anticoagulation 2x Clotting time APTT (human plasma [2])	Human Plasma Anticoagulation 2x Clotting time PT (human plasma [3])
NC^2	45 × 10^6 (L/mole)	N=C(N)c1ccc(CNC(=O)[C@@H]2C[C@@H]3CCCC[C@@H]3N2C(=O)[C@@H](Cc2ccccc2)NCC(=O)O)cc1 (relative stereo) [Example 47, HOOCCH2 -D-Phe-cis-Ohi-p-NHCH2 C6 H4 C(NH)NH2.HCl]	12	140 ng/mL	270 ng/mL
NC^2		N=C(N)c1ccc(CNC(=O)[C@@H]2C[C@@H]3CCCC[C@@H]3N2C(=O)[C@@H](CC2CCCCC2)NCC(=O)O)cc1 (relative stereo) [Example 49, (S-cis)-N-[[4-(aminoiminomethyl)phenyl]methyl]-1-[N-(carboxymethyl)-D-cyclohexylalanyl-1H-indole-2-carboxamide hydrochloride]	5		
NC2	38 × 10^6 (L/mole)	Cl.Cl.N=C(N)c1ccc(CNC(=O)C2CC3CCCCC3N2C(=O)C2NCCC3CCCCC32)cc1 [Example 42, D-1-Piq-cis-Ohi-p-NHCH2 C6 H4 C(NH)NH2.2HCl]	20	270 ng/mL	320 ng/mL
	11 × 10^6 (L/mole)	N=C(N)C1CCC(CNC(=O)[C@@H]2CCCN2C(=O)[C@@H](CC2CCCCC2)NCC(=O)O)NC1 (stereo partly drawn) [Example 67, HO2 CCH2 -D-Cha-Pro-2-NHCH2 -5-amidinopiperidine.HCl]	34	1,800 ng/mL	1,300 ng/mL
NC^1		N=C(N)c1ccc(CNC(=O)[C@@H]2CCCN2C(=O)[C@@H](CC2CCCCC2)NCC(=O)O)c(F)c1 [Example 71, N-(carboxymethyl)-D-cyclohexylalanyl-N-[[4-(aminoiminomethyl)-2-fluorophenyl]methyl]-L-prolinamide hydrochloride]	1	89 ng/mL	150 ng/mL
	12 × 10^6 (L/mole)	Cl.Nc1cc(CCNC(=O)[C@@H]2CCCN2C(=O)[C@@H](CC2CCCCC2)NCC(=O)O)ccn1 [Example 76, HO2 CCH2 -D-Cha-Pro-4-NHCH2 CH2 -2-aminopyridine.HCl]	29	490 ng/mL	560 ng/mL
	11 × 10^6 (L/mole)	NCc1ccc(CNC(=O)[C@@H]2CCCN2C(=O)[C@@H](CC2CCCCC2)NCC(=O)O)cc1 [Example 78, HO2 CCH2 -D-Cha-Pro-4-NHCH2 C6 H4 CH2 NH2.HCl]	46	430 ng/mL	760 ng/mL
	5.0 × 10^6 (L/mole)	CCS(=O)(=O)N[C@H](CC1CCCCC1)C(=O)N1CCC[C@H]1C(=O)NCc1ccc(N)cc1F.Cl [Example 82, EtSO2 -D-Cha-Pro-4-NHCH2 -3-F-C6 H3 NH2.HCl]	130	3,800 ng/mL	3,000 ng/mL
	2.4 × 10^6 (L/mole)	CCS(=O)(=O)N[C@H](CC1CCCCC1)C(=O)N1CCC[C@H]1C(=O)NCc1ccnc(N)c1.Cl [Example 83, EtSO2 -D-Cha-Pro-4-NHCH2 -2-aminopyridine.HCl]	91	1,000 ng/mL	1,300 ng/mL
	2.9 × 10^6 (L/mole)	CCS(=O)(=O)N[C@H](CC1CCCCC1)C(=O)N1CCC[C@H]1C(=O)NCc1ccc(N)nc1.Cl [Example 84, EtSO2 -D-Cha-Pro-5-NHCH2 -2-aminopyridine.HCl]	110	1,500 ng/mL	1,900 ng/mL
	0.14 × 10^6 (L/mole)	Cl.N=C(N)c1ccc(CNC(=O)CN(CCc2ccccc2)C(=O)CNCC(=O)O)cc1 [Example 89, HOOCCH2 -Gly-N-C6 H5 CH2 CH2 Gly-p-NHCH2 C6 H4 C(NH)NH2.HCl]	570	51,000 ng/mL	37,000 ng/mL

Second part, the compound before the results:

Compound	% oral/i.v. activity (Rat), screening not completed [4]	Kass Human Thrombin (Human Thrombin)	Human Plasma Anticoagulation 2x Clotting time TT (human plasma [1]) [ng/mL]	Human Plasma Anticoagulation 2x Clotting time APTT (human plasma [2])	Human Plasma Anticoagulation 2x Clotting time PT (human plasma [3])
CCS(=O)(=O)N[C@H](Cc1ccccc1)C(=O)N1[C@H](C(=O)NCc2ccc(C(=N)N)cc2)C[C@@H]2CCCC[C@@H]21 (relative stereo) [Example 45, hydrochloride]	NC^2		8	200 ng/mL	330 ng/mL
CCS(=O)(=O)N[C@H](Cc1ccccc1)C(=O)N1CCC[C@H]1C(=O)NCCc1ccc(C(=N)N)cc1 [Example 26, EtSO2 -D-Phe-Pro-p-NHCH2 CH2 -C6 H4 C(=NH)NH2.HCl]	NC^1		37	870 ng/mL	750 ng/mL
Cl.Nc1ccc(CNC(=O)[C@@H]2CCCN2C(=O)[C@@H](CC2CCCCC2)NCC(=O)O)c(F)c1 [Example 64, HO2 CCH2 -D-Cha-Pro-4-NHCH2 -3-F-C6 H3 NH2.HCl]	NC^3	15 × 10^6 (L/mole)	23	900 ng/mL	650 ng/mL
N=C(N)c1cc(F)c(CNC(=O)[C@@H]2CCCN2C(=O)[C@@H](CC2CCCCC2)NCC(=O)O)c(F)c1 [Example 72, N-(carboxymethyl)-D-cyclohexylalanyl-N-[[4-(aminoiminomethyl-2,6-difluorophenyl]methyl]-L-prolinamide hydrochloride]	NC^1		1	160 ng/mL	160 ng/mL
Cl.Nc1cc(CNC(=O)[C@@H]2CCCN2C(=O)[C@@H](CC2CCCCC2)NCC(=O)O)ccn1 [Example 73, HO2 CCH2 -D-Cha-Pro-4-NHCH2 -2-aminopyridine.HCl]		28 × 10^6 (L/mole)	21	340 ng/mL	330 ng/mL
Cl.Nc1ccc(CNC(=O)[C@@H]2CCCN2C(=O)[C@@H](CC2CCCCC2)NCC(=O)O)cn1 [Example 74, HO2 CCH2 -D-Cha-Pro-5-NHCH2 -2-aminopyridine.HCl]		29 × 10^6 (L/mole)	20	420 ng/mL	350 ng/mL
Nc1ccc(CNC(=O)[C@@H]2CCCN2C(=O)[C@@H](CC2CCCCC2)NCC(=O)O)cc1F [Example 77, HO2 CCH2 -D-Cha-pro-4-NHCH2-2-F-aniline.HCl]		11 × 10^6 (L/mole)	53	1,600 ng/mL	890 ng/mL
CCS(=O)(=O)N[C@H](CC1CCCCC1)C(=O)N1CCC[C@H]1C(=O)NCc1ccc(C(=N)N)cc1 [Example 80, N-(ethylsulfonyl)-D-cyclohexylalanyl-N-[[4-(aminoiminomethyl)phenyl]methyl]-L-prolinamide hydrochloride]		1,700 × 10^6 (L/mole)	4	40 ng/mL	130 ng/mL
N=C(N)c1ccc(CNC(=O)[C@@H]2CCCN2C(=O)[C@H](NCC(=O)O)C2CCCCC2)cc1 [Example 86, N-(carboxymethyl)-D-cyclohexylglycyl-N-[[4-(aminoiminomethyl)phenyl]methyl]-L-prolinamide hydrochloride]		200 × 10^6 (L/mole)	4	81 ng/mL	180 ng/mL
HOOCCH2 -D-Phe-Pro(4-cis-isoamyl)-p-NHCH2 C6 H4 C(NH)NH2.HCl [Example 50]		40 × 10^6 (L/mole)	35	460 ng/mL	420 ng/mL
